Tests used:
A549/DDP = assay: MTT cell viability assay, A549/DDP; format: cell-based, human; settings: A549/DDP (DDP-resistant), 48 h
Protocol: (§1) Cells were seeded at a density of 1 × 10^4 cells per well in 96-well plates. The following day, these cells were washed with PBS and exposed to different concentrations of testing compounds in culture medium for 48 h. MTT solution (10 μl at 5 mg/ml) was added to each well. After 4 h of incubation at 37°C, the medium was removed, and the insoluble precipitate was dissolved in 100 μl DMSO (Sigma, St. Louis, MO, USA). The absorbance of the dissolved solution at 490 nm was measured using a microplate reader (TECAN A-5082; Megllan, Austria). Cell viability percentages were calculated by dividing the mean optical density (OD) of compound-containing wells by that of the control wells. Each experiment was replicated three times. The IC50 of testing drugs was calculated with Statistical Product and Service Solutions software (SPSS, version 16.0).

rats = assay: Renal pathology (H&E) in rats; format: in vivo; settings: 7.5, 15, and 30 mg/kg twice a week for 4 weeks
Protocol: Total 30 rats were employed in the experiments, 20 rats were euthanized with isoflurane 3 days after the last administration, and the kidneys were excised and examined by the H&E staining, and the remaining 10 rats were handled after the recovery period (two weeks after the last administration). We found drug-related renal changes were appeared in the rats, especially in the high dose group (30 mg/kg). Of all the changes, the renal tubular epithelium denaturation/regeneration and tubular dilation are the most obvious, which are early appeared after 7.5 mg/kg treatment at both last administration and during recovery period.

LTEP-A-2 xenograft tumor = LTEP-A-2 xenograft tumor growth in nude mice; format: in vivo; settings: comparable to DDP 6 mg/kg and CBP 60 mg/kg
H460 = assay: MTT cell viability assay, H460; format: cell-based, human; settings: 48 h
Protocol: as §1

[1] = system: BEAS-2B normal human lung epithelial cell line; assay: MTT cell viability assay, BEAS-2B; format: cell-based
Protocol: as §1

[2] = Body weight and tolerability of A549 and H292 xenograft mice; format: in vivo
Protocol: Cells in logarithmic growth were washed with PBS and suspended in serum-free medium. Portions of the suspension (5 × 10^6 cells in 0.1 ml/mouse) were mixed at a 3:1 ratio with Matrigel basement membrane matrix and injected subcutaneously into the mice. Following 2 weeks of growth, tumor tissues were cut into multiple 2 × 2 × 2 mm^3 pieces and implanted using a range trocar subcutaneously (s.c. injection) into the left forepaw armpit of each mouse ([Jiang et al., 2017]). Treatment with pharmacology was started when the tumors reached an average volume of 100–200 mm^3. The mice were randomly divided into six groups (n = 14/group).
Body weight and tumor size were assessed every 3 days. Tumor size was measured using a caliper, the volumes were calculated according to the following standard formula: V = (L × W^2)/2 (V = tumor volume, L = largest diameter of tumor, W = smallest diameter of tumor). On day 25, all mice were sacrificed by cervical dislocation, and the tumors were removed and weighed.

H1299 = assay: MTT cell viability assay, H1299; format: cell-based, human; settings: 48 h
Protocol: as §1

LTEP-A-2 cells = assay: Cell cycle by PI flow cytometry, LTEP-A-2; format: cell-based, human; settings: diplatin 50 µM, DDP 5 µM, CBP 100 µM
Protocol: Then, the cells were trypsinized, washed with PBS, and fixed in 1.5 ml 95% ethanol and left at 4°C overnight. They were then incubated with RNase and stained with propidium iodide (PI) (Multi Sciences Biotech Co., Ltd). PI absorbance was determined using a Cytomics FC500 Flow Cytometer (Beckman Coulter, USA).

[3] = system: VEGF, p53, and Bax expression in the xenograft A549 and H292 lung tumor tissue; assay: Immunohistochemistry of xenograft tumor sections; format: in vivo, mice
Protocol: All tumor tissues were harvested and fixed in 4% buffered formalin. After 72 h, tumor tissues were embedded in paraffin and cut into 4 μm sections for immunohistochemistry assays. The streptavidin–biotin complex (SABC) method was used for immunohistochemical staining. Lung tissue sections from mice with no intervention were used as controls. The section slides were baked in an oven at 60°C for 1 h, washed in xylene, and hydrated in different concentrations of alcohol. Subsequently, endogenous peroxidase activity was quenched with 3% hydrogen peroxide for 10 min. To unmask the antigen, the slides were submerged in citrate buffer (0.01 M, pH 6.0) at 95°C for 5 min. The slides were blocked for 20 min with normal goat serum blocking solution. Primary antibodies were incubated at 4°C overnight. Primary antibody dilutions were as follows: 1:200 for VEGF, p53, and Bax. Immunocomplexes were visualized with 3,3′-diaminobenzidine (DAB), and the density was measured with the DP2-BSW software (Olympus, Tokyo, Japan).

CCN(CC)CCCCC1C(=O)[O][Pt][O]C1=O.N[C@@H]1CCCC[C@H]1N.O=P(O)(O)O [Diplatin]
IC50 (A549/DDP): 133 µM | renal pathology in rats (rats): nephrotoxicity | effect on LTEP-A-2 xenograft tumor volume and weight (LTEP-A-2 xenograft tumor): significant inhibition on xenograft tumor volume and weight | IC50 (H460): 40.7 µM | IC50 ([1]; BEAS-2B normal lung epithelial cells, MTT, 48 h): 47.9 µM | suppression of the viability of BEAS-2B cells compared to DDP ([1]; vs DDP): threefold less suppression | effect on body weight ([2]; diplatin 30 mg/kg and 60 mg/kg): no observable effects | reduction of body weight by day 25 ([2]; diplatin 120 mg/kg, CBP 60 mg/kg, every 3 days i.v.): 14.38% | IC50 (H1299): 57.5 µM | effect on cell cycle distribution (LTEP-A-2 cells): significant accumulation of cells in G2/M phase | VEGF expression in tumor sections compared to the control ([3]; 120 mg/kg): lower expression of VEGF | p53 and Bax expression in the A549 and H292 tumor sections ([3]; 120 mg/kg): significantly enhanced | effect on p53 expression in tumor sections compared with DDP and CBP treatment ([3]; diplatin 120 mg/kg vs DDP and CBP): nearly two-fold more potent
